Data from EP3831859A1, “COPOLYMER FOR ELECTRODE BINDER AND LITHIUM ION SECONDARY BATTERY” (SHOWA DENKO K.K., priority 2019, dated 2021).

Tests used:
[1] = n-octanol/water partition coefficient LogP (JIS Z 7260-117); details: for chromatographic logP: n-octanol/water
[2] = LogP, n-octanol/water partition coefficient
[3] = n-octanol/water partition coefficient

SMILES | chromatographic logP [1, 2] | chromatographic logP [1] | also measured
O=C(O)/C=C\C(=O)O [maleic acid] | -0.45 |  | 
C=CC(=O)OCC(C)O (stereo not drawn) [2-hydroxypropyl acrylate] | 0.36 |  | 
C=CC(=O)NCO [N-hydroxymethylacrylamide] |  |  | chromatographic logP (physchem; LogP): -1.38
C=CC(=O)OCC(CC)CCCC (stereo not drawn) [2-ethylhexyl acrylate] |  | 4.2 | 
C=C(C)C(=O)NCC(C)O (stereo not drawn) [N-(2-Hydroxypropyl) methacrylamide] | 0.95 |  | 
C=C(C)C(=O)NCC [N-ethylmethacrylamide] | 0.34 |  | 
C=C(C)C(=O)OCC(C)C [isobutyl methacrylate] | 2.58 |  | 
O=C(O)/C=C/C(=O)O [fumaric acid] | -0.45 |  | 
C=CC(=O)OCC [ethyl acrylate] | 1.32 |  | 
C=CC(=O)NCC(C)O (stereo not drawn) [N-(2-hydroxypropyl) acrylamide] | -1.37 |  | 
C=CC(=O)OCCCCCCCCCCCCCCCCCC [stearyl acrylate] | 9.45 |  | 
C=CC(=O)NC(C)(C)CC(C)=O [diacetone acrylamide] |  |  | chromatographic logP (physchem): 0.04
C=C(C)C(=O)OC [methyl methacrylate] |  | 1.38 | 
C=C(C)C(=O)OCCCCCCCCCCCCCCCCCC [stearyl methacrylate] |  | 9.87 | 
C=CC(=O)NCCN(C)C [N-(dimethylaminoethyl) acrylamide] | -0.28 |  | 
C=C(CC(=O)O)C(=O)O [itaconic acid] | -0.08 |  | 
C=C(C)C(=O)NC(C)C [N-isopropylmethacrylamide] | 0.7 |  | 
C=CC(N)=O [acrylamide] |  | -0.56 | 
C=CC(=O)N(C)C [N, N-dimethylacrylamide] |  |  | chromatographic logP (physchem; LogP): -0.14
C=C(C)C(=O)OCC(C)O (stereo not drawn) [2-hydroxypropyl methacrylate] | 0.78 |  | 
C=CC(=O)NCCCN(C)C [N-(dimethylaminopropyl) acrylamide] | -0.24 |  | 
C=CC(=O)OCCO [2-hydroxyethyl acrylate] |  | 0.01 | 
C/C=C/C(=O)O [crotonic acid] | 0.66 |  | 
C=C(C)C(N)=O [methacrylamide] | -0.14 |  | 

SMILES | chromatographic logP [1, 2] | chromatographic logP [1] | also measured
C=CC(=O)OC1CC2CCC1(C)C2(C)C (stereo not drawn) [isoboronyl acrylate] |  |  | LogP [1, 3]: 4.03
C=C(C)C(=O)NCO [N-hydroxymethylmethacrylamide] |  | -0.96 | 
C=C(C)C(=O)OCCCC [n-butyl methacrylate] |  | 2.74 | 
C=C(C)C(=O)OC1CC2CCC1(C)C2(C)C (stereo not drawn) [isoboronyl methacrylate] |  |  | LogP [1, 3]: 4.45
C=CC(=O)OCCCC [n-butyl acrylate] |  | 2.32 | LogP [1, 3]: Acrylic acid-n butyl (E-1) LogP = 2.32
C=CC(=O)NCC [N-ethylacrylamide] |  |  | chromatographic logP (physchem; LogP): -0.08
C=CC(=O)NCCC [N-propylacrylamide] | 0.43 |  | 
C=C(C)C(=O)OCC(CC)CCCC (stereo not drawn) [2-ethylhexyl methacrylate] |  |  | chromatographic logP (physchem; LogP): 4.62
C=CC(=O)OC [methyl acrylate] |  | 0.8 | 
C=C(C)C(=O)NCCO [N-hydroxyethylmethacrylamide] |  | -0.95 | 
C=C(C)C(=O)OC1CCCCC1 [cyclohexyl methacrylate] |  | 3.18 | 
C=CC(=O)OCC(C)C [isobutyl acrylate] |  | 2.16 | 
C=C(C)C(=O)OC(C)(C)C [tert-butyl methacrylate] | 2.48 |  | 
C=CC(=O)NCN(C)C [N-(dimethylaminomethyl) acrylamide] | -0.47 |  | 
C=CC(=O)NC [N-methylacrylamide] |  | -0.59 | 
C=C(C)C(=O)OC(C)C [isopropyl methacrylate] | 2.07 |  | 
C=CC(=O)OC(C)(C)C [tert-butyl acrylate] |  | 2.06 | 
C=CC(=O)OC1CCCCC1 [cyclohexyl acrylate] |  | 2.76 | 
C=C(C)C(=O)NC [N-methylmethacrylamide] | -0.17 |  | 
C=CC(=O)OCCC(=O)O [β-carboxyethyl acrylate] | 0.31 |  | 
C=C(C)C(=O)OCCC [n-propyl methacrylate] | 2.23 |  | 
C=C(C)C(=O)OCCO [2-hydroxyethyl methacrylate] |  | 0.43 | 
C=CC(=O)OCCCCO [4-hydroxybutyl acrylate] |  | 0.59 | 
